Measured values: patent publication US8455435B2, “Remedies for ischemia” (Ludwig-Maximilians-Universitat Munchen, priority 2006, dated 2013)

How the values were obtained:
Format in all cases: in vivo, C57BL/6 mice
[1] = test system: CD45+/CD34+ and CD45+/CD34- cell populations in peripheral blood; test: Flow cytometry of peripheral blood mononuclear cells after PTH or G-CSF in healthy mice
Description: For the experiments healthy age- and sex-matched (male, 8-12 weeks of age) C57BL/6 mice (Charles River) were used. Animal care and all experimental procedures were performed in strict accordance to the German and National Institutes of Health animal legislation guidelines and were approved by the local animal care and use committees.
(§1) Mice were divided into the following groups: 1) administration of saline daily for 6 days, sacrificed at day 7 (n=6). 2) administration of PTH (Bachem) daily for 6 consecutive days (80 μg per kg body weight per day, intraperitoneally), sacrificed at day 7 (n=6). 3) administration of PTH daily for 14 consecutive days, sacrificed at day 15 (n=6). 4) administration of G-CSF (Amgen Biologicals) daily for 5 consecutive days (200 μg per kg body weight per day, intraperitoneally), sacrificed at day 6 (n=6).
at day 6, 1 ml of peripheral blood was harvested from each mouse by aspirating the carotid artery. Bone marrow cells were obtained by flushing the tibias and femurs from the euthanized mice. Mononuclear cells were separated by density-gradient centrifugation using 1.077 g/mL Histopaque solution (Sigma Chemicals), purified and resuspended in phosphate-buffered saline (PBS) containing 1% bovine serum albumin. Cells were incubated for 40 minutes in the dark at 4° C. with following fluorescein-isothiocyanate (FITC), phycoerythrin (PE), and peridinin-chlorphyll-protein (PerCP) conjugated monoclonal antibodies: CD45-PerCP, C34-FITC, CD31-PE, Sca-1-PE and c-kit-PE (all from BD Pharmingen). Isotype-identical antibodies (BD Pharmingen) served as controls. Cells were analyzed by 3-color flow cytometry using a Coulter® Epics® XL-MCL™ flow cytometer (Beckman Coulter). Each analysis included 20000 events. The absolute number of antigen-positive cells per ml of whole blood was calculated by multiplying the percentage of antigen-positive cells with the total number of mononuclear cells per ml of blood detected by the conventional hematological cell analyzer. The number of lymphocytes together with the number of monocytes comprised the total number of mononuclear cells.

SCF = SCF serum level by ELISA after PTH; details: day 6 of PTH stimulation
Description: as §1
G-CSF and SCF serum levels were determined by ELISA (Mouse G-CSF and Mouse SCF, RayBiotech).

[2] = test system: CD45 positive stem cells in peripheral blood; test: Mobilization of bone marrow derived cells by PTH(1-34), flow cytometry of peripheral blood
Description: 8-12 week old C57BL/6 mice (n=5) were either treated with PTH (80 μg/kg/d) or saline daily for 5 or 14 consecutive days. At day 6 and day 14, 1 ml of peripheral blood was harvested from each mouse by aspirating the carotid artery. To define the number of leukocytes, heparinized blood samples were analyzed using a conventional hematological cell analyzer (Sysmex XE 2100). Mononuclear cells were separated by density-gradient centrifugation using Histopaque solution (1.077 g/ml, Sigma Chemicals), purified and resuspended in phosphate-buffered saline (PBS) containing 1% bovine serum albumin. Cells were incubated for 40 minutes in the dark at 4° C. with the following fluorescein-isothiocyanate (FITC), phycoerythrin (PE), and peridinin-chlorophyll-protein (PerCP) conjugated monoclonal antibodies: CD45− PerCP, CD34-FITC, CD31-PE, Sca-1-PE and c-kit-PE (all from BD Pharmingen). Matching isotype antibodies (BD Pharmingen) served as controls. Cells were analyzed by 3-color flow cytometry using a Coulter® Epics® XL-MCL™ flow cytometer (Beckman Coulter). Each analysis included 20000 events.

## rat PTH (1-34)
[1]; PTH 80 μg/kg/d for 6 or 14 days, peripheral blood
  increase of subpopulations of CD45+/CD34+ and CD45+/CD34- cells: 1.5- to 9.8 fold
[1]; PTH 80 μg/kg/d vs G-CSF 200 μg/kg/d 5 days
  mobilization of CD45+/CD34+ cells by PTH compared to G-CSF treatment: 20-50%
[1]; PTH day 6 and day 14, G-CSF day 6
  subtypes of CD45+/CD34+ and CD45+/CD34- cells in peripheral blood: significant increase
[1]; in comparison to a control
  mobilization of stem cells which express c-kit: 5 fold
[1]; peripheral blood
  number of mobilized subtypes of CD45+/CD34+ cells, PTH compared with G-CSF: significant lower number
[1]; peripheral blood, p<0.05
  mobilized CD45+/CD34-/c-kit+ cells, PTH compared with G-CSF: 49-50%
SCF
  serum level of SCF: 594.6 ± 26.8 pg/mL
[2]; day 6
  increase of CD45+/CD34+ cells: 4.4 fold
  increase of CD45+/CD34+/CD31+ cells: 2.9 fold
  increase of CD45+/CD34+/Sca-1+ cells: 2.9 fold
  increase of CD45+/CD34+/c-kit+ cells: 6.1 fold
[2]; day 14
  increase of CD45+/CD34+ cells: 6.0 fold
  increase of CD45+/CD34+/CD31+ cells: 3.1 fold
  increase of CD45+/CD34+/Sca-1+ cells: 2.9 fold
  increase of CD45+/CD34+/c-kit+ cells: 9.0 fold
